Structures can show the parent of a compound that is named as a salt. Marks after values point to notes of the source that are not given here.
Legend:
[1] = tested on: expectoration amount by rat capillary tube expectoration; test: rat capillary sputum excretion test; type: in vivo, SD rats; details: length of liquid in capillary tube within 90 minutes; 15 mg/kg in terms of free base via tail vein, 30 minutes after administration; n=10; vehicle control 22.7±4.41; hydrochloride, 15 mg/kg
Experimental: 180-220g SD rats of both sexes were used and divided into random groups, with 10 rats in each group, namely a vehicle control group, a Formula I compound group (15 mg/kg, in terms of free base), a Formula V compound group (15 mg/kg, in terms of free base), a Comparative Example group (15 mg/kg, in terms of free base) and ambroxol hydrochloride (15 mg/kg, in terms of free base). The rats were fasted and restrained from water for 12 hours before testing the amount of sputum excretion, and administered the respective medicaments via the tail vein (dissolved in normal saline by adjusting pH or directly dissolved in normal saline). 30 minutes after the administration, they were anesthetized by intraperitoneally injecting 1g/kg of a urethane solution in saline, fixed in supine position, and the trachea was separated after cutting through neck skin. A small hole was pierced by using a syringe needle between the two cartilage rings on the lower edge of the thyroid cartilage, and a capillary tube (with an inner diameter of 0.8mm, and a length of 10cm) was inserted centripetally into the trachea. Sputum was collected while adjusting the angle between the capillary tube and the trachea, and the total number of the length of liquids in the capillary tube (mm) was used to evaluate the expectoration effect. The amount of expectoration of the rats within 90 minutes was recorded. Here, the medicament used for the Comparative Example group was the 4-[(2-amino-3,5-dibromobenzyl)amino]adamantan-1-ol hydrochloride (racemic) prepared in Comparative Example 1. Table 4. Results of the effect on the expectoration amount by rat capillary tube expectoration

[2] = tested on: ammonia-induced coughing response in mice; test: cough response of mice induced by ammonia water; type: in vivo, KM mice
Experimental: 50 KM mice, weighing 18-22g, of both sexes were used and randomly divided into 5 groups, a model control group, a Formula I compound group (15 mg/kg, in terms of free base), a Formula V compound group (15 mg/kg, in terms of free base), a Comparative Example group (15 mg/kg, in terms of free base), and an ambroxol hydrochloride group (15 mg/kg, in terms of free base), 10 animals in each group, and were administered intravenously (dissolved in normal saline by adjusting pH or directly dissolved in normal saline). 30 minutes after the administration, the mice were put in an inverted beaker with a volume of 500ml and a cotton ball inside. Timing was started once 0.2ml of concentrated ammonia/mouse was added onto the cotton ball. The number of coughs of each animal within 3 minutes was observed and recorded. Here, the medicament used for the Comparative Example group was the 4-[(2-amino-3,5-dibromobenzyl)amino]adamantan-1-ol hydrochloride (racemic) prepared in Comparative Example 1. Table 3. Effect on ammonia-induced coughing response in mice (x ± s, n=10)

[3] = tested on: acute lung injury in mice induced by oleic acid; test: acute lung injury test in mouse (oleic acid-induced, histological grading of lung pathology); type: in vivo, KM mice
Experimental: KM mice, weighing 18-22g, with all 66 being males, were used and randomly grouped into a normal control group, a model control group, a Formula I compound group (40 mg/kg, in terms of free base), a Formula V compound group (40 mg/kg, in terms of free base), a Comparative Example group (40 mg/kg, in terms of free base), and an ambroxol hydrochloride group (40 mg/kg, in terms of free base), 11 animals in each group, and each group was administered intravenously (dissolved in normal saline by adjusting pH or directly dissolved in normal saline) once a day for 4 times, while the model control group and the normal control group were given an equivalent amount of normal saline. 30 minutes after the last administration, except for the normal control group, all other mice were administered 300 mg/kg oleic acid intravenously (prepared into the desired concentration with sterile saline containing 0.1% […] immediately before use), and the vehicle control group was given an equivalent volume of 0.1% BSA saline. The mice were sacrificed 4 hours after the last administration, and the right lobes of the lungs were removed and fixed in a 10% formaldehyde solution. After dehydration, embedding in paraffin, dissection, and staining with HE, they were observed under a microscope for pathological changes of the lung tissues. Here, the medicament used for the Comparative Example group was the 4-[(2-amino-3,5-dibromobenzyl)amino]adamantan-1-ol hydrochloride (racemic) prepared in Comparative Example 1. Table 1. Criteria for histological grading of lung injury
The above indicators are multiplied by different weighting numbers depending on the significance of the pathology (alveolar wall thickening × 1, inflammatory cell infiltration × 1, lung tissue necrosis × 3), and finally added up to obtain an overall lung pathology score. Table 2. Test results of lung pathologies of each group

[4] = tested on: tracheal phenol red secretion in mice; test: phenol red expectoration test in mice; type: in vivo; details: colorimetric measurement at 546nm; 30 mg/kg in terms of free base via tail vein 2 times in a row; x ± s, n=12; control 0.095±0.022; hydrochloride
Experimental: Experimental method: 60 mice of both sexes were used and randomly divided into a control (normal saline) group, a Formula I compound group (30 mg/kg, in terms of free base), a Formula V compound group (30 mg/kg, in terms of free base), a Comparative Example group (30 mg/kg, in terms of free base) and ambroxol hydrochloride (30 mg/kg, in terms of free base), 12 rats in each group; the respective medicaments were administered via the tail vein (dissolved in normal saline by adjusting pH or directly dissolved in normal saline) 2 times in a row. 15 minutes after the last administration to the mice, a 5% phenol red solution in normal saline (0.5g/kg) was subcutaneously injected. After 30 minutes, the mice were sacrificed and a section of the trachea was cut from below the thyroid cartilage to the trachea branch. The section was placed in a test tube containing 1 mL of normal saline, shaken and soaked for 30 minutes, and then centrifuged for 10 minutes (3000 r/min). The supernatant was transferred to another test tube, 0.1 mL of 1M NaOH solution was added, and shaken uniformly for a colorimetric measurement at 546nm. The effects of each group on the tracheal phenol red secretion in mice were statistically compared, and the experimental results obtained are shown in Table 5 below. Here, the medicament used for the Comparative Example group was the 4-[(2-amino-3,5-dibromobenzyl)amino]adamantan-1-ol hydrochloride (racemic) prepared in Comparative Example 1. Table 5. Effects on tracheal phenol red secretion in mice (x ± s)

[5] = number of mice (11 per group) at score 3 (Moderate), 40 mg/kg in terms of free base, intravenously once a day for 4 times, oleic acid 300 mg/kg i.v.
[6] = number of mice (11 per group) at score 4 (Severe), 40 mg/kg in terms of free base, intravenously once a day for 4 times, oleic acid 300 mg/kg i.v.

With `Nc1c(Br)cc(Br)cc1CN[C@@H]1[C@@H]2C[C@@H]3C[C@H]1C[C@@](O)(C3)C2` [Compound of Formula V, trans-4-[(2-amino-3,5-dibromobenzyl)amino]adamantan-1-ol hydrochloride] the “Expectoration amount in 90min (mm)” value [1] was 45.1±5.39 mm, the “reduction of the number of coughs” value ([2]; compared with the model control group (P<0.05 or P<0.01), 15 mg/kg free base i.v.) was “significantly reduce the number of coughs” and the “Number of coughs (times)” value ([2]; within 3 minutes after concentrated ammonia, 15 mg/kg in terms of free base i.v., 30 minutes after administration, x ± s, n=10, model control 41.7±8.76, hydrochloride, 15 mg/kg) was 19.5±6.50 times. The “Overall lung pathology score” value ([3]; group sum, weighted (alveolar wall thickening x 1, inflammatory cell infiltration x 1, lung tissue necrosis x 3), 40 mg/kg free base i.v. once a day for 4 times, model control 81, normal control 21, hydrochloride, 40 mg/kg) was 24^**▲, the “Alveolar wall thickening Level 0” value ([3]; number of mice (11 per group) at score 0 (No pathological change), 40 mg/kg in terms of free base, intravenously once a day for 4 times, oleic acid 300 mg/kg i.v.) was 1 and the “Inflammatory cell infiltration Level 0” value ([3]; number of mice (11 per group) at score 0 (No pathological change), 40 mg/kg in terms of free base, intravenously once a day for 4 times, oleic acid 300 mg/kg i.v., hydrochloride) was 2. For the same compound, the “Lung tissue necrosis Level 1” value ([3]; number of mice (11 per group) at score 1 (Occasional), 40 mg/kg in terms of free base, intravenously once a day for 4 times, oleic acid 300 mg/kg i.v.) was 0, the “Lung tissue necrosis Level 2” value ([3]; number of mice (11 per group) at score 2 (Mild), 40 mg/kg in terms of free base, intravenously once a day for 4 times, oleic acid 300 mg/kg i.v.) was 0 and the “Inflammatory cell infiltration Level 2” value ([3]; number of mice (11 per group) at score 2 (Mild), 40 mg/kg in terms of free base, intravenously once a day for 4 times, oleic acid 300 mg/kg i.v., hydrochloride) was 2. For the same compound, the “Inflammatory cell infiltration Level 3” value [3, 5] was 0, the “Lung tissue necrosis Level 3” value [3, 5] was 0 and the “Alveolar wall thickening Level 3” value ([3]; number of mice (11 per group) at score 3 (Moderate), 40 mg/kg in terms of free base, intravenously once a day for 4 times, oleic acid 300 mg/kg i.v., hydrochloride) was 0. The “Alveolar wall thickening Level 4” value [3, 6] was 0, the “Inflammatory cell infiltration Level 4” value [3, 6] was 0 and the “Lung tissue necrosis Level 4” value [3, 6] was 0. For the same compound, the “Phenol red secretion (OD number)” value [4] was 0.278±0.054 OD number.

From patent publication EP4310070A1, “USE OF TRANS AMANTADINE DERIVATIVE OR SALT THEREOF” (Chengdu Shibeikang Biomedical Technology Co., Ltd., priority 2021, dated 2022)
